# Structures can show the parent of a compound that is named as a salt.
# What was measured:
# Aurora1 (Aurora-B) = target: T1, Aurora1 (Aurora-B) (Homo sapiens, UniProt Q96GD4); experiment: Aurora 1 (Aurora B) kinase radioactivity scintillation assay using nickel chelate Flash plates; type: biochemical; settings: 10 nM Aurora-B (co expressed with C3 fragment of INCEP), 500 nM NuMA substrate, 1 μM ATP with [33P] ATP, 5 mM MgCl2, 30 minutes, 37° C.
# T1 construct: Aurora-B: the full length protein (His tagged in N-terminal) has been co expressed in SF9 cells; poly-histidine (N); made in house; host or cells: SF9 cells
# T1 sequence (Q96GD4 whole entry, species assumed, the tested form may be a part): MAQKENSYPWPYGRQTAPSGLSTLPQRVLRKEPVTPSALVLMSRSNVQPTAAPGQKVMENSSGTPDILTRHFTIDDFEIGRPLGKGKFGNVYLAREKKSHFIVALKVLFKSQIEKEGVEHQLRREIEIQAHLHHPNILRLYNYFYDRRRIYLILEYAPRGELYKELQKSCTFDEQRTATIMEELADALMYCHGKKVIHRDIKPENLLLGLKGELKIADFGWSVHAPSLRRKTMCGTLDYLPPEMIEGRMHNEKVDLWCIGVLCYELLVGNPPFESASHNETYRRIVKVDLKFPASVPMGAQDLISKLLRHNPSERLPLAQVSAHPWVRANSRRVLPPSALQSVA
# T1 sequence (Q9NQS7 821-918 partner limits assumed, species assumed): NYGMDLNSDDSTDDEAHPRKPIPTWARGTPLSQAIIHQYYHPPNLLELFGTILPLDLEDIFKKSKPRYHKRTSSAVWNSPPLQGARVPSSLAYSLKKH
# Method in brief: (§1)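 10 nM Aurora-B or Aurora-A with 500 nM NuMA-His substrate, 1 μM ATP plus [³³P]ATP, in 50 mM NaCl, 1 mM DTT and 5 mM (B) or 10 mM (A) MgCl2, 30 min at 37° C on nickel-chelate plates. Incorporated ³³P counted after washing, background-subtracted; IC50 fitted from % inhibition versus concentration.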
# Aurora2 (Aurora-A) = target: T2, Aurora2 (Aurora-A) (Homo sapiens, UniProt O14965); experiment: Aurora 2 (Aurora A) kinase radioactivity scintillation assay using nickel chelate Flash plates; type: biochemical; settings: 10 nM Aurora-A, 500 nM NuMA substrate, 1 μM ATP with [33P] ATP, 10 mM MgCl2, 30 minutes, 37° C.
# T2 construct: Aurora-A: the full length recombinant protein including an N-terminal poly-histidine tail has been expressed in E. coli; poly-histidine (N); made in house; host or cells: E. coli
# T2 sequence (O14965 1-403): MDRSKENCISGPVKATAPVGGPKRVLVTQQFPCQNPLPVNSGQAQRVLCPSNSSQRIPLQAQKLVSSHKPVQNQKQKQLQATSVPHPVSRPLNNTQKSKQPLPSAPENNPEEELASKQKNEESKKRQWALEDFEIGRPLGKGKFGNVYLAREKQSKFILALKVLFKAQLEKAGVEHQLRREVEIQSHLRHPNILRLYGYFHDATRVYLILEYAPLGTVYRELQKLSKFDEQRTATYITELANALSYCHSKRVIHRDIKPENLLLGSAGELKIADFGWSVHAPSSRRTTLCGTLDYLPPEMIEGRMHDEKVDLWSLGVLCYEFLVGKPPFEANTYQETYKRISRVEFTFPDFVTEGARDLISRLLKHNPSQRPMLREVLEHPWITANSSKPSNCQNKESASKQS
# Method in brief: as §1
Compound,IC50 (Aurora1 (Aurora-B)),IC50 (Aurora2 (Aurora-A))
"Cc1c[nH]c(Sc2ccc(C3C4=C(CC(C)(C)CC4=O)Nc4n[nH]cc43)o2)n1 (stereo not drawn) [Example 91, 7,7-Dimethyl-4-[5-(4-methyl-1H-imidazol-2-ylsulfanyl)-furan-2-yl]-2,4,6,7,8,9-hexahydro-pyrazolo[3,4-b]quinolin-5-one; compound with trifluoro-acetic acid]",86 nM,156 nM
"Cn1c(-c2ccc(Cl)cc2)cnc1Sc1ccc(C2C3=C(CCCC3=O)Nc3n[nH]cc32)o1 (stereo not drawn) [Example 92, 4-{5-[5-(4-Chloro-phenyl)-1-methyl-1H-imidazol-2-ylsulfanyl]-furan-2-yl}-2,4,6,7,8,9-hexahydro-pyrazolo[3,4-b]quinolin-5-one]",233 nM,2090 nM
"Cn1c(-c2ccc(Cl)cc2)cnc1Sc1ccc(C2C3=C(CC(C)(C)CC3=O)Nc3n[nH]cc32)o1 (stereo not drawn) [Example 93, 4-{5-[5-(4-Chloro-phenyl)-1-methyl-1H-imidazol-2-ylsulfanyl]-furan-2-yl}-7,7-dimethyl-2,4,6,7,8,9-hexahydro-pyrazolo[3,4-b]quinolin-5-one]",156 nM,1360 nM
"Cn1c(-c2ccc(Cl)cc2)cnc1Sc1ccc(C2C3=C(CNCC3=O)Nc3n[nH]cc32)o1 (stereo not drawn) [Example 94, 4-{5-[5-(4-Chloro-phenyl)-1-methyl-1H-imidazol-2-ylsulfanyl]-furan-2-yl}-2,4,6,7,8,9-hexahydro-pyrazolo[3,4-b]-1,7-naphthyridin-5-one; compound with trifluoro-acetic acid]",1220 nM,9810 nM
"O=C1CCCC2=C1C(c1ccc(Sc3nc4cc(C(F)(F)F)ccc4[nH]3)o1)c1cn[nH]c1N2 (stereo not drawn) [Example 95, 4-[5-(5-Trifluoromethyl-1H-benzimidazol-2-ylsulfanyl)-furan-2-yl]-1,4,6,7,8,9-hexahydro-pyrazolo[3,4-b]quinolin-5-one]",9 nM,61 nM
"CC1(C)CC(=O)C2=C(C1)Nc1n[nH]cc1C2c1ccc(Sc2nc3cc(C(F)(F)F)ccc3[nH]2)o1 (stereo not drawn) [Example 96, 4-[5-(5-Trifluoromethyl-1H-benzoimidazol-2-ylsulfanyl)-furan-2-yl]-7,7-dimethyl-2,4,6,7,8,9-hexahydro-pyrazolo[3,4-b]quinolin-5-one]",23 nM,58 nM
O=C1CNCC2=C1C(c1ccc(Sc3nc4cc(C(F)(F)F)ccc4[nH]3)o1)c1c[nH]nc1N2 (stereo not drawn) [Example 97],47 nM,292 nM
"Cc1nc(Sc2ccc(C3C4=C(CCCC4=O)Nc4n[nH]cc43)o2)[nH]c1C (stereo not drawn) [Example 98, 4-[5-(4,5-Dimethyl-1H-imidazol-2-ylsulfanyl)-furan-2-yl]-2,4,6,7,8,9-hexahydro-pyrazolo[3,4-b]quinolin-5-one]",231 nM,338 nM
"Cc1nc(Sc2ccc(C3C4=C(CC(C)(C)CC4=O)Nc4n[nH]cc43)o2)[nH]c1C (stereo not drawn) [Example 99, 4-[5-(4,5-Dimethyl-1H-imidazol-2-ylsulfanyl)-furan-2-yl]-7,7-dimethyl-2,4,6,7,8,9-hexahydro-pyrazolo[3,4-b]quinolin-5-one]",124 nM,135 nM
"Cc1nc(Sc2ccc(C3C4=C(CNCC4=O)Nc4n[nH]cc43)o2)[nH]c1C (stereo not drawn) [Example 100, 4-[5-(4,5-Dimethyl-1H-imidazol-2-ylsulfanyl)-furan-2-yl]-2,4,6,7,8,9-hexahydro-pyrazolo[3,4-b]-1,7-naphthyridin-5-one; compound with trifluoro-acetic acid]",5430 nM,5440 nM
"Cc1ccc2[nH]c(Sc3ccc(C4C5=C(CCCC5=O)Nc5[nH]ncc54)s3)nc2c1 (stereo not drawn) [Example 101, 4-[5-(5-Methyl-1H-benzimidazol-2-ylsulfanyl)-thiophen-2-yl]-1,4,6,7,8,9-hexahydro-pyrazolo[3,4-b]quinolin-5-one]",60 nM,1710 nM
"Cc1ccc2[nH]c(Sc3ccc(C4C5=C(CC(C)(C)CC5=O)Nc5n[nH]cc54)s3)nc2c1 (stereo not drawn) [Example 102, 7,7-Dimethyl-4-[5-(5-methyl-1H-benzoimidazol-2-ylsulfanyl)-thiophen-2-yl]-2,4,6,7,8,9-hexahydro-pyrazolo[3,4-b]quinolin-5-one]",45 nM,596 nM
"Cc1ccc2[nH]c(Sc3ccc(C4C5=C(CNCC5=O)Nc5n[nH]cc54)s3)nc2c1 (stereo not drawn) [Example 103, 4-[5-(5-Methyl-1H-benzoimidazol-2-ylsulfanyl)-thiophen-2-yl]-2,4,6,7,8,9-hexahydro-pyrazolo[3,4-b]-1,7-naphthyridin-5-one; compound with trifluoro-acetic acid]",299 nM,4720 nM
"CCOC(=O)c1[nH]cc2c1NC1=C(C(=O)CCCC1)C2c1ccc(Sc2nc3ccccc3[nH]2)o1 (stereo not drawn) [Example 107, 10-[5-(1H-Benzoimidazol-2-ylsulfanyl)-furan-2-yl]-9-oxo-2,4,5,6,7,8,9,10-octahydro-2,4-diaza-cyclohepta[f]indene-3-carboxylic acid ethyl ester, compound with trifluoroacetic acid]",2580 nM,2940 nM
"CCOC(=O)c1[nH]cc2c1NC1=C(C(=O)CCC1)C2c1ccc(Sc2nc3cc(C)ccc3[nH]2)o1 (stereo not drawn) [Example 108, 9-[5-(5-Methyl-1H-benzimidazol-2-ylsulfanyl)-furan-2-yl]-8-oxo-4,5,6,7,8,9-hexahydro-2H-pyrrolo[3,4-b]quinoline-3-carboxylic acid ethyl ester]",8 nM,41 nM
"CCOC(=O)c1[nH]cc2c1NC1=C(C(=O)CC(C)(C)C1)C2c1ccc(Sc2nc3cc(C)ccc3[nH]2)o1 (stereo not drawn) [Example 109, 6,6-Dimethyl-9-[5-(5-methyl-1H-benzimidazol-2-ylsulfanyl)-furan-2-yl]-8-oxo-4,5,6,7,8,9-hexahydro-2H-pyrrolo[3,4-b]quinoline-3-carboxylic acid ethyl ester]",17 nM,63 nM
"CCOC(=O)c1[nH]cc2c1NC1=C(C(=O)CNC1)C2c1ccc(Sc2nc3cccnc3[nH]2)o1 (stereo not drawn) [Example 113, 9-[5-(3H-Imidazo[4,5-b]pyridin-2-ylsulfanyl)-furan-2-yl]-8-oxo-4,5,6,7,8,9-hexahydro-2H-pyrrolo[3,4-b][1,7]naphthyridine-3-carboxylic acid ethyl ester]",23 nM,112 nM
"CCOC(=O)c1[nH]cc2c1NC1=C(C(=O)CCC1)C2c1ccc(Sc2nc3ccncc3[nH]2)o1 (stereo not drawn) [Example 117, 9-[5-(3H-Imidazo[4,5-c]pyridin-2-ylsulfanyl)-furan-2-yl]-8-oxo-4,5,6,7,8,9-hexahydro-2H-pyrrolo[3,4-b]quinoline-3-carboxylic acid ethyl ester]",194 nM,3090 nM
"CCOC(=O)c1[nH]cc2c1NC1=C(C(=O)CNC1)C2c1ccc(Sc2nc3cc(O)ccc3[nH]2)o1 (stereo not drawn) [Example 123, 9-[5-(5-Hydroxy-1H-benzimidazol-2-ylsulfanyl)-furan-2-yl]-8-oxo-4,5,6,7,8,9-hexahydro-2H-pyrrolo[3,4-b]-1,7-naphthyridine-3-carboxylic acid ethyl ester hydrochloride]",72 nM,813 nM
"CC1(C)CC(=O)C2=C(C1)Nc1c(c[nH]c1C(=O)O)C2c1ccc(Sc2nc3ccccc3[nH]2)o1 (stereo not drawn) [Example 124, 9-[5-(1H-Benzimidazol-2-ylsulfanyl)-furan-2-yl]-6,6-dimethyl-8-oxo-4,5,6,7,8,9-hexahydro-2H-pyrrolo[3,4-b]quinoline-3-carboxylic acid]",15 nM,20 nM
"CC1(C)CC(=O)C2=C(C1)Nc1c(c[nH]c1C(N)=O)C2c1ccc(Sc2nc3ccccc3[nH]2)o1 (stereo not drawn) [Example 125, 9-[5-(1H-Benzimidazol-2-ylsulfanyl)-furan-2-yl]-6,6-dimethyl-8-oxo-4,5,6,7,8,9-hexahydro-2H-pyrrolo[3,4-b]quinoline-3-carboxamide]",11 nM,23 nM
"CCOC(=O)c1[nH]cc2c1NC1=C(C(=O)CCC1)C2c1ccc(Sc2nc3cc(OC(F)F)ccc3[nH]2)o1 (stereo not drawn) [Example 126, 9-[5-(5-Difluoromethoxy-1H-benzimidazol-2-ylsulfanyl)-furan-2-yl]-8-oxo-4,5,6,7,8,9-hexahydro-2H-pyrrolo[3,4-b]quinoline-3-carboxylic acid ethyl ester]",13 nM,41 nM
CCOC(=O)c1[nH]cc2c1NC1=C(C(=O)CN(C(=O)OC(C)(C)C)C1)C2c1ccc(Sc2nc3cc(OC(F)F)ccc3[nH]2)o1 (stereo not drawn) [Example 127],93 nM,566 nM
"CCOC(=O)c1[nH]cc2c1NC1=C(C(=O)CNC1)C2c1ccc(Sc2nc3cc(OC(F)F)ccc3[nH]2)o1 (stereo not drawn) [Example 128, 9-[5-(5-Difluoromethoxy-1H-benzimidazol-2-ylsulfanyl)-furan-2-yl]-8-oxo-4,5,6,7,8,9-hexahydro-2H-pyrrolo[3,4-b]-1,7-naphthyridine-3-carboxylic acid ethyl ester hydrochloride]",17 nM,114 nM

# — patent US8163768B2, “1,4-dihydropyridine-fused heterocycles, process for preparing the same, use and compositions containing them” (Aventis Pharma S.A.., priority 2005, dated 2012)
